Data published in patent publication US6335327B1, “Benzoheterocyclic derivatives” (Otsuka Pharmaceuticals Co., Ltd., priority 1994, dated 2002).

melting point [°C]	SMILES
153 to 154.5	COc1cc(NCc2ccccc2C)ccc1C(=O)N1CCCC(CC(=O)N2CCN(C)CC2)c2cc(Cl)ccc21 (stereo not drawn) [Example 142, 7-chloro-5-[(4-methyl-1-piperazinyl)carbonylmethyl]-1-[2-methoxy-4-(2-methylbenzylamino)benzoyl]-2,3,4,5-tetrahydro-1H-benzazepine]
230 to 232	COc1cc(C(=O)N2CCCCc3cc(Cl)ccc32)ccc1NC(=O)N(C)C [Example 146, 7-chloro-1-(3-methoxy-4-dimethylaminocarbonylaminobenzoyl)-2,3,4,5-tetrahydro-1H-benzazepine]
194 to 195	Cc1cc(NC(=O)CO)ccc1C(=O)N1CCCCc2cc(Cl)ccc21 [Example 722, 7-chloro-1-[2-methyl-4-(2-hydroxyacetylamino)benzoyl]-2,3,4,5-tetrahydro-1H-benzazepine]
181 to 184	O=C(Nc1ccc(C(=O)N2CCCCc3ccccc32)c(Cl)c1)OCc1ccncc1 [Example 725, 1-{4-[(4-pyridyl)methoxycarbonylamino]-2-chlorobenzoyl}-2,3,4,5-tetrahydro-1H-benzazepine]
144 to 146	O=C(Nc1ccc(C(=O)N2CCCCc3ccccc32)c(Cl)c1)OCCOc1ccccc1 [Example 726, 1-[4-(2-phenoxyethoxycarbonylamino)-2-chlorobenzoyl]-2,3,4,5-tetrahydro-1H-benzazepine]

The remaining lines, values behind:

SMILES	melting point [°C]
COc1cc(NCCOc2ccccc2C)ccc1C(=O)N1CCCC(CC(=O)N2CCN(C)CC2)c2cc(Cl)ccc21 (stereo not drawn) [Example 139, 7-chloro-5-[(4-methyl-1-piperazinyl)carbonylmethyl]-1-[2-methoxy-4-[2-(2-methylphenoxy)ethylamino]benzoyl}-2,3,4,5-tetrahydro-1H-benzazepine]	160 to 161
O=C(O)CC1CCCN(C(=O)c2ccc(NC(=O)COc3ccccc3)cc2)c2ccccc21 (stereo not drawn) [Example 721, 5-carboxymethyl-1-[4-(2-phenoxyacetylamino)benzoyl]-2,3,4,5-tetrahydro-1H-benzazepine]	102 to 106
CN1CCN(c2ccc(C(=O)N3CCCCc4ccccc43)c(Cl)c2)CC1 [Example 728, 1-[4-(4-methyl-1-piperazinyl)-2-chlorobenzoyl]-2,3,4,5-tetrahydro-1H-benzazepine]	138 to 140
O=C(c1ccc(-c2ccccc2)cc1Cl)N1CCCC(Cc2nnn[nH]2)c2ccccc21 (stereo not drawn) [Example 730, 5-(5-tetrazolyl)methyl-1-(4-phenyl-2-chlorobenzoyl)-2,3,4,5-tetrahydro-1H-benzazepine]	191 to 194
